This note sets out measurements from US20080275022A1, “Substituted Quinazolones as Anti-Cancer Agents” (AstraZeneca AB, priority 2004, published 2008).

Chain of human recombinant, purified wild type His-B-Raf protein kinase (P15056 whole entry): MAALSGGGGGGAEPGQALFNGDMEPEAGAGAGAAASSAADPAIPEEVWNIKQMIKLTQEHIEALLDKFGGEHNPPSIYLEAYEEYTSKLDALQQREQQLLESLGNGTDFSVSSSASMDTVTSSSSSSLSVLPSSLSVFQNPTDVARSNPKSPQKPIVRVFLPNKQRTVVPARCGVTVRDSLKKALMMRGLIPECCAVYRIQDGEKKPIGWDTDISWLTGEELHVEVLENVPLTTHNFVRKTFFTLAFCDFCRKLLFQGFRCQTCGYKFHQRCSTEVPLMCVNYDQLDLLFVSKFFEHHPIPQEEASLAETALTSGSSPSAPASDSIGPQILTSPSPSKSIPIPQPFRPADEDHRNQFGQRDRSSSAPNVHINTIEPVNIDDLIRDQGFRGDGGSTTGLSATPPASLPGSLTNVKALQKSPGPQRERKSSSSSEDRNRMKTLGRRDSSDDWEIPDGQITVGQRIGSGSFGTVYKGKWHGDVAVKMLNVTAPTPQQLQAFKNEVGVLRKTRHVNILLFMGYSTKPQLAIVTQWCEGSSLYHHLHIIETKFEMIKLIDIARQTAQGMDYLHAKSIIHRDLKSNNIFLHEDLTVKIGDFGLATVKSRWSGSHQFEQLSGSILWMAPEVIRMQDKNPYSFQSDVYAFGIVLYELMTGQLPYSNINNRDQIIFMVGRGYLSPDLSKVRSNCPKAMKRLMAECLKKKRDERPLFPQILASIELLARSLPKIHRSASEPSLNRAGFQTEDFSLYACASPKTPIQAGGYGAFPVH

In this test the target is human recombinant, purified wild type His-B-Raf protein kinase (Homo sapiens, UniProt P15056). In words: B-Raf In Vitro ELISA Assay. The class given is biochemical. Conditions: phosphorylation of MEK1; 2.5 nM B-Raf, 0.15 μM MEK1, 10 μM ATP; 1 hour preincubation at 25° C. The method, then:
B-Raf In Vitro ELISA Assay
Activity of human recombinant, purified wild type His-B-Raf protein kinase was determined in vitro using an enzyme-linked immunosorbent assay (ELISA) assay format, which measures phosphorylation of the B-Raf substrate, human recombinant, purified His-derived (detagged) MEK1. The reaction utilized 2.5 nM B-Raf, 0.15 μM MEK1 and 10 μM adenosine triphosphate (ATP) in 40 mM N-(2-hydroxyethyl)piperazine-N′-(2-ethanesulfonic acid hemisodium salt (HEPES), 5 mM 1,4-dithio-DL-threitol (DTT), 10 mM MgCl2, 1 mM ethylenediaminetetraacetic acid (EDTA) and 0.2 M NaCl (1×HEPES buffer), with or without compound at various concentrations, in a total reaction volume of 25 μl in 384 well plates. B-Raf and compound were preincubated in 1×HEPES buffer for 1 hour at 25° C. Reactions were initiated with addition of MEK1 and ATP in 1×HEPES buffer and incubated at 25° C. for 50 minutes and reactions stopped by addition of 10 μl 175 mM EDTA (final concentration 50 mM) in 1×HEPES buffer. 5 μl of the assay mix was then diluted 1:20 into 50 mM EDTA in 1×HEPES buffer, transferred to 384 well black high protein binding plates and incubated overnight at 4° C. Plates were washed in tris buffered saline containing 0.1% Tween20 (TBST), blocked with 50 μl Superblock (Pierce) for 1 hour at 25° C., washed in TBST, incubated with 50 μl rabbit polyclonal anti-phospho-MEK antibody (Cell Signaling) diluted 1:1000 in TBS for 2 hours at 25° C., washed with TBST, incubated with 50 μl goat anti-rabbit horseradish peroxidase-linked antibody (Cell Signaling) diluted 1:2000 in TBS for 1 hour at 25° C. and washed with TBST. 50 μl of fluorogenic peroxidase substrate (Quantablu—Pierce) was added and following incubation for 45-60 minutes, 50 ul QuantabluSTOP (Pierce) was added. Blue fluorescent product was detected at excitation 325 and emission 420 using a TECAN Ultra plate reader. Data was graphed and IC50s calculated using Excel Fit (Microsoft).
In general terms: In an ELISA, binding on a coated surface is turned into a signal by an enzyme label.
For `Cc1ccc(NC(=O)c2cccc(C(F)(F)F)c2)cc1-n1c(C)nc2ccc(N3CCOCC3)cc2c1=O` [Example 14, N-[4-Methyl-3-(2-methyl-6-morpholin-4-yl-4-oxo-4H-quinazolin-3-yl)phenyl]-3-trifluoromethylbenzamide], the IC50 (commonly the concentration that gives 50% inhibition) stood at 3200 nM.
As for `Cc1ccc(NC(=O)c2cccc(C(F)(F)F)c2)cc1-n1cnc2ccc(NCCCN(C)C)cc2c1=O` [Example 9, N-{3-[6-(3-Dimethylaminopropylamino)-4-oxo-4H-quinazolin-3-yl]-4-methylphenyl}-3-trifluoromethylbenzamide], the figure is 535 nM; as for `Cc1ccc(NC(=O)c2cccc(C(F)(F)F)c2)cc1-n1cnc2ccc(OCCN3CCOCC3)cc2c1=O` [Example 22, N-{4-Methyl-3-[6-(2-morpholinoethoxy)-4-oxo-4H-quinazolin-3-yl]phenyl}-3-trifluoromethylbenzamide], 518 nM.
